Measured values published in patent publication US12054498B2, “Heteroaromatic macrocyclic ether chemotherapeutic agents” (Nuvalent, Inc., priority 2020, dated 2024).

Assays:
ALK-wt = target: T1, ALK-wt (Homo sapiens, UniProt Q9UM73); experiment: Biochemical kinase assay, ALK-wt kinase domain; conditions: apparent inhibitory constant, Morrison equation; ATP 2 mM in substrate solution; read-out: ALK-wt Ki^app
T1 construct: purchased Carna 08-518
Procedure, shortened: (§1)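 Apparent Ki values come from fitting initial reaction rates against inhibitor concentration to the Morrison equation. Rates were taken from the linear phase of fluorogenic substrate phosphorylation (AQT0101 for ALK and ROS1, AQT0104 for TRKA; 26 μM in substrate solution with 2 mM ATP), monitored at 485 nm over 120 min at 30° C.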

ALK L1196M/G1202R = target: T2, ALK L1196M/G1202R (Homo sapiens, UniProt Q9UM73, G1202R/L1196M); experiment: Biochemical kinase assay, ALK L1196M/G1202R kinase domain; conditions: apparent inhibitory constant, Morrison equation; ATP 2 mM in substrate solution; read-out: ALK-L1196M-G1202R Ki^app
T2 construct: purchased SignalChem A19-12NG
Procedure, shortened: as §1

ROS1-wt = target: T3, ROS1-wt (Homo sapiens, UniProt P08922); experiment: Biochemical kinase assay, ROS1-wt kinase domain; conditions: apparent inhibitory constant, Morrison equation; ATP 2 mM in substrate solution; read-out: ROS1-wt Ki^app
T3 construct: purchased Carna 08-163
Procedure, shortened: (§2)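 Compounds, as 100-fold DMSO stocks, were dispensed first, then substrate mix was added (ATP 2 mM, AQT0101 26 μM, in 50 mM HEPES pH 7.5/10 mM MgCl2). Reactions ran at 30 °C with fluorescence logged every 2 min over 120 min. Apparent inhibition constants came from fitting rates to Morrison's tight-binding equation.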

ROS1-G2032R = target: T4, ROS1-G2032R (Homo sapiens, UniProt P08922, G2032R); experiment: Biochemical kinase assay, ROS1-G2032R kinase domain; conditions: apparent inhibitory constant, Morrison equation; ATP 2 mM in substrate solution; read-out: ROS1-G2032R Ki^app
T4 construct: purchased SignalChem R14-12BG
Procedure, shortened: as §2

TRKA-wt = target: T5, TRKA-wt (Homo sapiens, UniProt P04629); experiment: Biochemical kinase assay, TRKA-wt kinase domain; conditions: apparent inhibitory constant, Morrison equation; ATP 2 mM in substrate solution; read-out: TRKA-wt Ki^app
T5 construct: or TRKA-wt (1 nM, BPS Bio, 40280) kinase domains in buffer; purchased BPS Bio 40280
Procedure, shortened: as §1

[1] = target: T6, Ba/F3 cells CD74-ROS1 wild-type (wt) (Homo sapiens, UniProt P08922); experiment: Ba/F3 cell proliferation assay, CD74-ROS1 wild-type; assay type: cell-based; conditions: 72 hours, CellTiter-Glo
T6 construct: fusion of the C-terminus of ROS1 with the N-terminus of various partner proteins; host or cells: Ba/F3 (RIKEN), retroviral pMSCV-puro; the other entry of the earlier key: CD74 (P04233, HLA class II histocompatibility antigen gamma chain)
Procedure, shortened: (§3)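 Viability read by CellTiter-Glo luminescence after 72 h exposure to 3-fold serial compound dilutions, four-parameter logistic fitting giving IC50.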

[2] = target: T7, Ba/F3 cells CD74-ROS1 G2032R (Homo sapiens, UniProt P08922, G2032R); experiment: Ba/F3 cell proliferation assay, CD74-ROS1 G2032R; assay type: cell-based; conditions: 72 hours, CellTiter-Glo
T7 construct: fusion of the C-terminus of ROS1 with the N-terminus of various partner proteins; host or cells: Ba/F3 (RIKEN), retroviral pMSCV-puro; the other entry of the earlier key: CD74 (P04233, HLA class II histocompatibility antigen gamma chain)
Procedure, shortened: as §3

[3] = target: T8, Ba/F3 cells EML4-ALK wt (variant 1) (Homo sapiens, UniProt Q9UM73); experiment: Ba/F3 cell proliferation assay, EML4-ALK wt (variant 1); assay type: cell-based; conditions: 72 hours, CellTiter-Glo
T8 construct: echinoderm microtubule-associated protein-like 4 (EML4) gene and the ALK tyrosine kinase domain; host or cells: Ba/F3 (RIKEN), retroviral pMSCV-puro; the other entry of the earlier key: EML4 (Q9HC35, Echinoderm microtubule-associated protein-like 4)
Procedure, shortened: (§4)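 Proliferation of fusion-driven Ba/F3 monoclones (grown without IL-3, puromycin 0.8 μg/mL) is followed over 72 hours of treatment with a 3-fold compound dilution series. ATP content is read by CellTiter-Glo luminescence, and IC50 is derived by four-parameter logistic fitting of percent inhibition.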

[4] = target: T9, Ba/F3 cells EML4-ALK L1196M/G1202R (variant 1) (Homo sapiens, UniProt Q9UM73, G1202R/L1196M); experiment: Ba/F3 cell proliferation assay, EML4-ALK L1196M/G1202R (variant 1); assay type: cell-based; conditions: 72 hours, CellTiter-Glo
T9 construct: echinoderm microtubule-associated protein-like 4 (EML4) gene and the ALK tyrosine kinase domain; host or cells: Ba/F3 (RIKEN), retroviral pMSCV-puro; the other entry of the earlier key: EML4 (Q9HC35, Echinoderm microtubule-associated protein-like 4)
Procedure, shortened: as §4

Ba/F3 cells TPM3-TRKA = target: T10, Ba/F3 cells TPM3-TRKA (Homo sapiens, UniProt P04629); experiment: Ba/F3 cell proliferation assay, TPM3-TRKA; assay type: cell-based; conditions: 72 hours, CellTiter-Glo, read-out: TPM3-NTRK1-wt IC50
T10 construct: host or cells: Ba/F3 (RIKEN), retroviral pMSCV-puro; the other entry of the earlier key: TPM3 (P06753, Tropomyosin alpha-3 chain)
Procedure, shortened: as §4

[5] = test system: TPM3-NTRK1-wt IC50 / primary target IC50 (e.g. CD74-ROS1-wt); experiment: TRKA selectivity in Ba/F3 cells (TRKA potency divided by primary target potency); assay type: cell-based; conditions: for TPM3-NTRK1-wt/CD74-ROS1-G2032R selectivity ratio: TRKA potency / CD74-ROS1-G2032R potency; for TPM3-NTRK1-wt/CD74-ROS1-wt selectivity ratio: TRKA potency / CD74-ROS1-wt potency; for TPM3-NTRK1-wt/EML4-ALK-L1196M-G1202R selectivity ratio: TRKA potency / EML4-ALK-L1196M-G1202R potency; for TPM3-NTRK1-wt/EML4-ALK-wt selectivity ratio: TRKA potency / EML4-ALK-wt potency
Experimental: TRKA selectivity was calculated by dividing a compound's TRKA potency by its primary target potency (e.g. TPM3-NTRK1-wt IC50/CD74-ROS1-wt IC50). Compound selectivity can be interpreted by binning ratio values: bin A for very high selectivity, ratio >30-fold; bin B for high selectivity, ratio >10-fold; bin C for moderate selectivity, ratio ≥1; and bin D for low selectivity, ratio <1. […] (nd=not determined).

T7 sequence (P08922 1883-2347 G2032R limits assumed): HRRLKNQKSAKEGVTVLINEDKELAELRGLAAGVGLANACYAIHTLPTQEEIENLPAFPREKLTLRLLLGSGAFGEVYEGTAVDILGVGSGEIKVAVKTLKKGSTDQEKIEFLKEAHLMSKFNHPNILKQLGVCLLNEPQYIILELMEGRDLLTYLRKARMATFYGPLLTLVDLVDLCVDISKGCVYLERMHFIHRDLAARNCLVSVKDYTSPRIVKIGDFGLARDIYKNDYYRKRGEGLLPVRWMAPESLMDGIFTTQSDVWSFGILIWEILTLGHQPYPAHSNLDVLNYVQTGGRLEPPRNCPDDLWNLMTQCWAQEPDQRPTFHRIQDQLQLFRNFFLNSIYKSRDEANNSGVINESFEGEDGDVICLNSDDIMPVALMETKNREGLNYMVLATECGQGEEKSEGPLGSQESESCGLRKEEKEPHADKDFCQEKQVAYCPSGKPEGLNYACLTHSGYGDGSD
T4 sequence (P08922 1945-2222 G2032R limits assumed): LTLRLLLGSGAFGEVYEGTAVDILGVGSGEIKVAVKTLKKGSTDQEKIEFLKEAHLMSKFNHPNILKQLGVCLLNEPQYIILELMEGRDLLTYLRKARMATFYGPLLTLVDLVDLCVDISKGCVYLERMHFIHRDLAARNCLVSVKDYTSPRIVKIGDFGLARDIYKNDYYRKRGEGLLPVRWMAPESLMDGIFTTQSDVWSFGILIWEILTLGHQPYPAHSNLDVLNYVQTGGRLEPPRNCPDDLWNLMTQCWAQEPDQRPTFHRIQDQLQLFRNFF
T6 sequence (P08922 1883-2347 limits assumed): as the sequence (P08922 1883-2347 G2032R limits assumed) above, with R150G counted along it
T5 sequence (P04629 510-781 limits assumed): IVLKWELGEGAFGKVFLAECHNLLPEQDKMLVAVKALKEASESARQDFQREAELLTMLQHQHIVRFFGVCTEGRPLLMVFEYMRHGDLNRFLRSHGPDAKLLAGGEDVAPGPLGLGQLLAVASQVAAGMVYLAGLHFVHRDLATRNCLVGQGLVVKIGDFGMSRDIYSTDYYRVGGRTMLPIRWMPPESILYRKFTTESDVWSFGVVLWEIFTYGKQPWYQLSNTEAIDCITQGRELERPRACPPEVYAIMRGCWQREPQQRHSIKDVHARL
T1 sequence (Q9UM73 1116-1392 limits assumed): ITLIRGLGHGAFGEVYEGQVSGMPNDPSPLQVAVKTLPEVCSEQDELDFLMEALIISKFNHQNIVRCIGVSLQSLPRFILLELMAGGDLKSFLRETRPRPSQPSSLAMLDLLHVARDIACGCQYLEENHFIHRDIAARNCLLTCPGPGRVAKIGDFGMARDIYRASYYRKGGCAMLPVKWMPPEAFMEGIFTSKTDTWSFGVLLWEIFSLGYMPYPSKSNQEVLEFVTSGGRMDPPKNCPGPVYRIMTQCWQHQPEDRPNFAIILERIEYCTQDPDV
T9 sequence (Q9UM73 with tags, fused parts or gaps L1196M/G1202R): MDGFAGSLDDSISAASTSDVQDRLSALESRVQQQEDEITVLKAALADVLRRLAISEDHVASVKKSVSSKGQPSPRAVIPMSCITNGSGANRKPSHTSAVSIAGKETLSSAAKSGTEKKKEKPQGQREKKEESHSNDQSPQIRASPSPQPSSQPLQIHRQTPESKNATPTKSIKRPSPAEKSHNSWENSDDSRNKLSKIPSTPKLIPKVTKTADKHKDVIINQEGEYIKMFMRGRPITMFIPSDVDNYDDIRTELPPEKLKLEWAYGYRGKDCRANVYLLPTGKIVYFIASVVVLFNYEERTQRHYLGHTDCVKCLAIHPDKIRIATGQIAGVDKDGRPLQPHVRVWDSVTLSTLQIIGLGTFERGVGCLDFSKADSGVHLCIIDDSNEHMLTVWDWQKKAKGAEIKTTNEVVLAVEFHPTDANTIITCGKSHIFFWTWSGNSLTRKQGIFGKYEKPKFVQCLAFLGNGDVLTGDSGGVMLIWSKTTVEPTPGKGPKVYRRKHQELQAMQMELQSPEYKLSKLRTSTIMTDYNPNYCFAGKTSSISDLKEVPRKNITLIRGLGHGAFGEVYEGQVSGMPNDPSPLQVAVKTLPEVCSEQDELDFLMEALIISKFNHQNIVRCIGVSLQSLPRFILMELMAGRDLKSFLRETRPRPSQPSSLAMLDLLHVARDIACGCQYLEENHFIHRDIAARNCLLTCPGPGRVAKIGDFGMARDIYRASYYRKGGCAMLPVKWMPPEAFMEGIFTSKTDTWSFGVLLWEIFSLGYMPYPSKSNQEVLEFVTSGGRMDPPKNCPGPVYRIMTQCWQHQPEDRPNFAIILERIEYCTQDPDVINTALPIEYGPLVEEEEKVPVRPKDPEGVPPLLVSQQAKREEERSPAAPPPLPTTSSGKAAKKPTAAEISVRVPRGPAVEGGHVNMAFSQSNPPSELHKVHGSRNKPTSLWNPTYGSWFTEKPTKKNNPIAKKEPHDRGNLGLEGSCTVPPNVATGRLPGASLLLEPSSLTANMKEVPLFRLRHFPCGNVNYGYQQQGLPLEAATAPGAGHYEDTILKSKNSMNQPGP
T8 sequence (Q9UM73 with tags, fused parts or gaps): as the sequence (Q9UM73 with tags, fused parts or gaps L1196M/G1202R) above, with M635L, R641G counted along it
T10 sequence (P04629 510-796 limits assumed): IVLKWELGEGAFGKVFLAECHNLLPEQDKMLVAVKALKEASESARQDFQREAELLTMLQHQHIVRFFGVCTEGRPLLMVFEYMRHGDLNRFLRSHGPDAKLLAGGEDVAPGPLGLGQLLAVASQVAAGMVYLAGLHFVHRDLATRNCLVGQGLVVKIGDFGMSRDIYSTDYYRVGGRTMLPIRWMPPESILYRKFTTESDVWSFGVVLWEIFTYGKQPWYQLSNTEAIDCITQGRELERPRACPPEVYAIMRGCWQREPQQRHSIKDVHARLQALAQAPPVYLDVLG
T3 sequence (P08922 1945-2222 limits assumed): as the sequence (P08922 1945-2222 G2032R limits assumed) above, with R88G counted along it
T2 sequence (Q9UM73 1116-1392 L1196M/G1202R limits assumed): as the sequence (Q9UM73 1116-1392 limits assumed) above, with L81M, G87R counted along it

Row | SMILES | Ki (ALK-wt) | Ki (ALK L1196M/G1202R) | Ki (ROS1-wt) | Ki (ROS1-G2032R) | Ki (TRKA-wt) | IC50 [1] | IC50 [2] | IC50 [3] | IC50 [4] | IC50 (Ba/F3 cells TPM3-TRKA) | TPM3-NTRK1-wt/CD74-ROS1-G2032R selectivity ratio [5] | TPM3-NTRK1-wt/CD74-ROS1-wt selectivity ratio [5] | TPM3-NTRK1-wt/EML4-ALK-L1196M-G1202R selectivity ratio [5] | TPM3-NTRK1-wt/EML4-ALK-wt selectivity ratio [5]
1 | CCc1nn(C)c2c1-c1cnc(N)c(c1)O[C@H](C)c1cc(F)ccc1-c1nn(C)nc1C2 [Example 98, (19R)-3-ethyl-16-fluoro-5,10,19-trimethyl-20-oxa-4,5,9,10,11,23-hexaazapentacyclo[19.3.1.0^2,^6.0^8,^12.0^13,^18]pentacosa-1(24),2(6),3,8,11,13,15,17,21(25),22-decaen-22-amine] | < 50 nM | < 50 nM | < 50 nM | < 50 nM | 50 to 500 nM | 0.1 to 50 nM | 0.1 to 50 nM | 0.1 to 50 nM | 0.1 to 50 nM | 50 to 500 nM | A (bin A for very high selectivity, ratio >30-fold) | A (bin A for very high selectivity, ratio >30-fold) | C (bin C for moderate selectivity, ratio ≥1) | A (bin A for very high selectivity, ratio >30-fold)
2 | C[C@H]1Oc2cc(cnc2N)-c2c(CC3CC3)nn(C)c2Cn2ncnc2-c2ccc(F)cc21 [Example 99, (19R)-3-(cyclopropylmethyl)-16-fluoro-5,19-dimethyl-20-oxa-4,5,8,9,11,23-hexaazapentacyclo[19.3.1.0^2,^6.0^8,^12.0^13,^18]pentacosa-1(24),2(6),3,9,11,13,15.17,21(25),22-decaen-22-amine] | < 50 nM | < 50 nM | < 50 nM | < 50 nM | > 500 nM | 0.1 to 50 nM | 0.1 to 50 nM | 0.1 to 50 nM | 50 to 500 nM | > 500 nM | A (bin A for very high selectivity, ratio >30-fold) | A (bin A for very high selectivity, ratio >30-fold) | B (bin B for high selectivity, ratio >10-fold) | A (bin A for very high selectivity, ratio >30-fold)

Continued, in another order:

Row | Ki (ALK-wt) | Ki (ALK L1196M/G1202R) | Ki (ROS1-wt) | Ki (ROS1-G2032R) | Ki (TRKA-wt) | IC50 [1] | IC50 [2] | IC50 [3] | IC50 [4] | IC50 (Ba/F3 cells TPM3-TRKA) | SMILES | TPM3-NTRK1-wt/CD74-ROS1-G2032R selectivity ratio [5] | TPM3-NTRK1-wt/CD74-ROS1-wt selectivity ratio [5] | TPM3-NTRK1-wt/EML4-ALK-L1196M-G1202R selectivity ratio [5] | TPM3-NTRK1-wt/EML4-ALK-wt selectivity ratio [5]
3 | < 50 nM | 50 to 500 nM | < 50 nM | 50 to 500 nM | > 500 nM | 0.1 to 50 nM | 0.1 to 50 nM | 0.1 to 50 nM | > 500 nM | 50 to 500 nM | CCc1snc2c1-c1cnc(N)c(c1)O[C@H](C)c1cc(F)ccc1-c1nn(C)nc1C2 [Example 87, (19R)-3-ethyl-16-fluoro-10,19-dimethyl-20-oxa-4-thia-5,9,10,11,23-pentaazapentacyclo[19.3.1.0^2,^6.0^8,^12.0^13,^18]pentacosa-1(24),2,5,8,11,13,15,17,21(25),22-decaen-22-amine] | B (bin B for high selectivity, ratio >10-fold) | A (bin A for very high selectivity, ratio >30-fold) | D (bin D for low selectivity, ratio <1) | A (bin A for very high selectivity, ratio >30-fold)
4 | < 50 nM | < 50 nM | < 50 nM | < 50 nM | 50 to 500 nM | 0.1 to 50 nM | 0.1 to 50 nM | 0.1 to 50 nM | 50 to 500 nM | 50 to 500 nM | CCn1nc2c(n1)-c1ccc(F)cc1[C@@H](C)Oc1cc(cnc1N)-c1c(cnn1CC)C2 [Example 88, (19R)-3,10-diethyl-16-fluoro-19-methyl-20-oxa-3,4,9,10,11,23-hexaazapentacyclo(19.3.1.0^2,^6.0^8,^12.0^13,^18]pentacosa-1(24),2(6),4,8,11,13,15,17,21(25),22-decaen-22-amine] | A (bin A for very high selectivity, ratio >30-fold) | A (bin A for very high selectivity, ratio >30-fold) | C (bin C for moderate selectivity, ratio ≥1) | B (bin B for high selectivity, ratio >10-fold)
5 | < 50 nM | < 50 nM | < 50 nM | < 50 nM | > 500 nM | 0.1 to 50 nM | 0.1 to 50 nM | 0.1 to 50 nM | 50 to 500 nM | > 500 nM | C[C@H]1Oc2cc(cnc2N)-c2c(c(Cl)nn2CC2CC2)Cc2nn(C)cc2-c2ccc(F)cc21 [Example 90, (19R)-5-chloro-3-(cyclopropylmethyl)-16-fluoro-10,19-dimethyl-20-oxa-3,4,9,10,23-pentaazapentacyclo[19.3.1.0^2,^6.0^8,^12.0^13,^18]pentacosa-1(24),2(6),4,8,11,13,15,17,21(25),22-decaen-22-amine] | A (bin A for very high selectivity, ratio >30-fold) | A (bin A for very high selectivity, ratio >30-fold) | A (bin A for very high selectivity, ratio >30-fold) | A (bin A for very high selectivity, ratio >30-fold)
6 | < 50 nM | < 50 nM | < 50 nM | < 50 nM | > 500 nM | 0.1 to 50 nM | 0.1 to 50 nM | 0.1 to 50 nM | 50 to 500 nM | 50 to 500 nM | Cc1cc2n(n1)Cc1cnn(CCF)c1-c1cnc(N)c(c1)O[C@H](C)c1cc(F)ccc1-2 [Example 92, (19R)-16-fluoro-3-(2-fluoroethyl)-10,19-dimethyl-20-oxa-3,4,8,9,23-pentaazapentacyclo[19.3.1.0^2,^6.0^8,^12.0^13,^18]pentacosa-1(24),2(6),4,9,11,13,15,17,21(25),22-decaen-22-amine] | A (bin A for very high selectivity, ratio >30-fold) | A (bin A for very high selectivity, ratio >30-fold) | C (bin C for moderate selectivity, ratio ≥1) | B (bin B for high selectivity, ratio >10-fold)
